≈ marks a conversion by molar mass, not a printed value.
Key:
[1] = system: J774; test: Cytotoxicity against mouse J774 cells assessed as cell viability at 32 ug/ml incubated for 2 hrs by MTS assay; type: cell-based; details: j774, 2 h, dose 32 µg/ml
[2] = system: Staphylococcus aureus; test: Ratio of MBC to MIC against methicillin-sensitive Staphylococcus aureus NRS107 assessed as inhibition of bacterial growth measured after 18 to 20 hrs by CLSI protocol based broth microdilution method; type: functional; details: time 18-20 hrs
[3] = system: Staphylococcus aureus; test: Bactericidal activity against methicillin-resistant Staphylococcus aureus USA400 NRS123 assessed as eradication of bacterial count at 5 times MIC incubated for 8 hrs in soy broth followed by incubation for 18 to 20 hrs on agar plate by time kill assay; type: functional; details: time 26-28 hrs
[4] = system: Enterococcus faecium; test: Ratio of MBC to MIC for vancomycin-resistant Enterococcus faecium ATCC 700221 assessed as inhibition of bacterial growth measured after 18 to 20 hrs by CLSI protocol based broth microdilution method; type: functional; details: time 18-20 hrs
[5] = Selectivity index, ratio of maximum non-toxic concentration for human Caco-2 cells to MIC for methicillin-resistant Staphylococcus aureus USA400 NRS123; type: toxicity
[6] = system: Staphylococcus aureus; test: microbe, parasite or virus in culture; details: ATCC 6538
[7] = Half life in human liver microsomes at 0.1 uM in absence of NADPH by LC/MS/MS analysis; type: ADME, Microsome
[8] = system: Staphylococcus aureus; test: Ratio of MIC for methicillin-resistant Staphylococcus aureus USA400 NRS123 measured after 13th passage to MIC for methicillin-resistant Staphylococcus aureus USA400 NRS123 measured after 18 to 20 hrs by broth microdilution assay; type: functional
[9] = system: Enterococcus faecalis; test: microbe, parasite or virus in culture; details: ATCC 51299
[10] = physchem; details: phosphate-buffered saline, pH 7.4
[11] = system: Enterococcus faecium; test: Antibacterial activity against vancomycin-resistant Enterococcus faecium ATCC 700221 assessed as inhibition of bacterial growth measured after 18 to 20 hrs by CLSI protocol based broth microdilution method; type: functional; details: time 18-20 hrs
[12] = system: Staphylococcus aureus; test: Antibacterial activity against vancomycin-resistant Staphylococcus aureus 10 assessed as inhibition of bacterial growth measured after 18 to 20 hrs by CLSI protocol based broth microdilution method; type: functional; details: time 18-20 hrs
[13] = system: Streptococcus pneumoniae; test: Ratio of MBC to MIC for methicillin-resistant Streptococcus pneumoniae ATCC 700677 assessed as inhibition of bacterial growth measured after 18 to 20 hrs by CLSI protocol based broth microdilution method; type: functional; details: time 18-20 hrs
[14] = system: Streptococcus pneumoniae; test: Antibacterial activity against cephalosporin-resistant Streptococcus pneumoniae ATCC 51916 assessed as inhibition of bacterial growth measured after 18 to 20 hrs by CLSI protocol based broth microdilution method; type: functional; details: time 18-20 hrs
[15] = system: Staphylococcus aureus; test: Bactericidal activity against methicillin-resistant Staphylococcus aureus USA400 NRS123 assessed as log reduction in viable bacteria count at 5 times MIC incubated for 2 hrs in soy broth followed by incubation for 18 to 20 hrs on agar plate by time kill assay; type: functional; details: time 20-22 hrs
[16] = system: Listeria monocytogenes; test: Ratio of MBC to MIC for Listeria monocytogenes ATCC 19111 assessed as inhibition of bacterial growth measured after 18 to 20 hrs by CLSI protocol based broth microdilution method; type: functional; details: time 18-20 hrs
[17] = system: Escherichia coli; test: Antibacterial activity against wild type Escherichia coli BW25113 assessed as inhibition of bacterial growth measured after 18 to 20 hrs by broth microdilution method; type: functional; details: time 18-20 hrs
[18] = Selectivity index, ratio of maximum non-toxic concentration for human Caco-2 cells to MIC for methicillin-resistant Staphylococcus aureus NRS119; type: toxicity
[19] = Selectivity index, ratio of maximum non-toxic concentration for human Caco-2 cells to MIC for methicillin-resistant Staphylococcus aureus USA300 NRS384; type: toxicity
[20] = system: Staphylococcus epidermidis; test: Antibacterial activity against methicillin-resistant Staphylococcus epidermidis NRS101 assessed as inhibition of bacterial growth measured after 18 to 20 hrs by CLSI protocol based broth microdilution method; type: functional; details: time 18-20 hrs
[21] = system: Staphylococcus aureus; test: Antibacterial activity against vancomycin-resistant Staphylococcus aureus 12 assessed as inhibition of bacterial growth measured after 18 to 20 hrs by CLSI protocol based broth microdilution method; type: functional; details: time 18-20 hrs
[22] = system: Staphylococcus aureus; test: microbe, parasite or virus in culture; details: NRS119
[23] = in vitro; details: human, liver microsomes
[24] = Cytotoxicity against human Caco-2 cells assessed as cell viability at 64 ug/ml incubated for 2 hrs by MTS assay relative to control; type: cell-based; details: at 64 µg/mL, read-out: Activity
[25] = Intrinsic clearance in human liver microsomes at 0.1 uM in absence of NADPH measured upto 60 mins by LC/MS/MS analysis; type: ADME, Microsome; details: read-out: CLH
[26] = Half life in human liver microsomes at 0.1 uM in presence of NADPH by LC/MS/MS analysis
[27] = system: Staphylococcus epidermidis; test: Ratio of MBC to MIC for methicillin-resistant Staphylococcus epidermidis NRS101 assessed as inhibition of bacterial growth measured after 18 to 20 hrs by CLSI protocol based broth microdilution method; type: functional; details: time 18-20 hrs
[28] = system: Staphylococcus aureus; test: Ratio of MBC to MIC against methicillin-sensitive Staphylococcus aureus ATCC 6538 assessed as inhibition of bacterial growth measured after 18 to 20 hrs by CLSI broth microdilution method; type: functional; details: time 18-20 hrs
[29] = Selectivity index, ratio of maximum non-toxic concentration for human Caco-2 cells to MIC for methicillin-resistant Staphylococcus aureus USA500 NRS385; type: toxicity
[30] = system: Enterococcus faecalis; test: Ratio of MBC to MIC for vancomycin-resistant Enterococcus faecalis ATCC 51299 assessed as inhibition of bacterial growth measured after 18 to 20 hrs by CLSI protocol based broth microdilution method; type: functional; details: time 18-20 hrs
[31] = system: Staphylococcus aureus; test: microbe, parasite or virus in culture; details: USA400 NRS123
[32] = system: Staphylococcus aureus; test: microbe, parasite or virus in culture; details: NRS107
[33] = Selectivity index, ratio of maximum non-toxic concentration for human Caco-2 cells to MIC for methicillin-resistant Staphylococcus aureus USA700 NRS386; type: toxicity
[34] = system: Staphylococcus aureus; test: Antibacterial activity against methicillin-resistant Staphylococcus aureus USA400 NRS123 infected in mouse J774 cells assessed as reduction in intracellular bacterial burden at 4 x MIC measured after 24 hrs relative to control; type: functional
[35] = system: Staphylococcus aureus; test: Antibacterial activity against methicillin-resistant Staphylococcus aureus USA400 NRS123 infected in mouse J774 cells assessed as reduction in intracellular bacterial burden at 2 x MIC measured after 24 hrs relative to control; type: functional

C/C(=N\NC(=N)N)c1ccc(Nc2nc(-c3ccc(C)cc3)cs2)cc1
Activity [1]: Non-Toxic | Ratio [2]: 1 | Activity [3]: 100% | Ratio [4]: 1 | selectivity ratio [5]: 16 | MBC [6]: 4 µg/mL (≈ 11 µM) | MIC [6]: 2 µg/mL (≈ 5.49 µM) | half-life at 0.1 µM [7]: 254 min | Ratio [8]: 1 | MBC [9]: 4 µg/mL (≈ 11 µM) | MIC [9]: 2 µg/mL (≈ 5.49 µM) | solubility kinetic at 2 h [10]: 26.7 µM (≈ 9.73 µg/mL) | MBC [11]: 4 µg/mL (≈ 11 µM) | MIC [11]: 2 µg/mL (≈ 5.49 µM) | MBC [12]: 2 µg/mL (≈ 5.49 µM) | MIC [12]: 2 µg/mL (≈ 5.49 µM) | Ratio [13]: 1 | MBC [14]: 4 µg/mL (≈ 11 µM) | MIC [14]: 2 µg/mL (≈ 5.49 µM) | Activity [15]: 3 log10CFU/ml | Ratio [16]: 1 | MIC [17]: 16 µg/mL (≈ 43.9 µM) | selectivity ratio [18]: 16 | selectivity ratio [19]: 16 | MBC [20]: 1 µg/mL (≈ 2.74 µM) | MIC [20]: 1 µg/mL (≈ 2.74 µM) | MBC [21]: 2 µg/mL (≈ 5.49 µM) | MIC [21]: 2 µg/mL (≈ 5.49 µM) | MBC [22]: 4 µg/mL (≈ 11 µM) | MIC [22]: 2 µg/mL (≈ 5.49 µM) | microsomal CLint at 1 h, 0.1 µM [23]: 58.9 µL/min/mg | viability at 2 h, 64 ug/ml [24]: 100% | microsomal CLint at 0.1 µM [25]: 27.3 µL/min/mg | half-life at 0.1 µM [26]: 118 min | Ratio [27]: 1 | Ratio [28]: 1 | selectivity ratio [29]: 16 | Ratio [30]: 1 | MBC [31]: 2 µg/mL (≈ 5.49 µM) | MIC [31]: 2 µg/mL (≈ 5.49 µM) | MBC [32]: 2 µg/mL (≈ 5.49 µM) | MIC [32]: 2 µg/mL (≈ 5.49 µM) | selectivity ratio [33]: 16 | inhibition (INH) [34]: 99% | inhibition (INH) [35]: 93%

From ChEMBL document CHEMBL4706519, “Evaluation of N-phenyl-2-aminothiazoles for treatment of multi-drug resistant and intracellular Staphylococcus aureus infections” (Eur J Med Chem, 2020)
